Data from ChEMBL document CHEMBL5584313, “Design and Synthesis of 7-Oxabicyclo[2.2.1]heptane-2,3-dicarboxylic Acid Derivatives as PP5 Inhibitors To Reverse Temozolomide Resistance in Glioblastoma Multiforme” (J Med Chem, 2024).
≈ marks a conversion by molar mass, not a printed value. Calls of active or inactive are those of the source. The calls are words filed in the database; no cut-off is given here.

What was measured:
[1] = MRT(0 to infinity) in Sprague-Dawley rat at 25 mg/kg, po measured upto 24 hrs by LC-MS/MS method; type: ADME, organism-based; conditions: in vivo
U-87MG ATCC [2] = experiment: Upregulation of p21 expression in human U-87 MG cells at 6.25 to 100 uM after 24 hrs by Western blotting analysis; type: functional, cell-based; conditions: dose 6.25-100 µM
U-87 MG [3] = experiment: Induction of apoptosis in human U-87 MG cells assessed as S phase cells at 5 uM incubated for 24 hrs by propidium iodide staining based flow cytometry analysis (reference value: 29.4%); type: functional, U-87MG ATCC
[4] = Toxicity in BALB/c nude mouse xenografted with U-87 MG cells assessed as lung damage at 1.5 to 3 mg/kg, po administered every other day for 18 days in presence of 40 mg/kg TMZ by H and E staining based assay; type: organism-based; conditions: in vivo, 432 h, dose 1.5-3 mg/kg, time 18 day
[5] = Toxicity in BALB/c nude mouse xenografted with U-87 MG cells assessed as change in body weight at 1.5 to 3 mg/kg, po administered every other day for 18 days in presence of 40 mg/kg TMZ; type: organism-based; conditions: in vivo, 432 h, dose 1.5-3 mg/kg, time 18 day
[6] = Aqueous solubility of compound by HPLC method; type: physicochemical; conditions: water
U-87 MG [7] = experiment: Antitumor activity against human U-87 MG cells xenografted in BALB/c nude mouse assessed as increase in p53 expression at 3 mg/kg, po measured after 4 hrs by Western blotting analysis; type: functional, organism-based; conditions: U-87MG ATCC
U-87MG ATCC [8] = experiment: Upregulation of p53 expression in human U-87 MG cells at 25 uM after 24 hrs in presence TMZ by Western blotting analysis; type: functional, cell-based
U-87MG ATCC [9] = experiment: Downregulation of cyclin D1 expression in human U-87 MG cells at 25 uM incubated for 24 hrs by Western blotting analysis; type: functional, cell-based
U-87 MG [10] = experiment: Synergistic antiproliferative activity against human U-87 MG cells at 10 uM in presence of TMZ; type: functional, cell-based; conditions: U-87MG ATCC
Homo sapiens [11] = organism: Homo sapiens; experiment: Selectivity ratio of IC50 for PP1 (unknown origin ) to IC50 for PP5 (unknown origin)
[12] = Stability of compound in water assessed as remaining compound after 24 hrs; type: physicochemical; conditions: read-out: Stability
[13] = AUC(0 to infinity) in Sprague-Dawley rat at 5 mg/kg, iv measured upto 24 hrs by LC-MS/MS method; type: ADME, organism-based; conditions: in vivo
A549 = experiment: Cytotoxicity against human A549 cells incubated for 48 hrs by CCK8 assay; type: functional, cell-based; conditions: A549, 48 h
[14] = Toxicity in BALB/c nude mouse xenografted with U-87 MG cells assessed as liver damage at 1.5 to 3 mg/kg, po administered every other day for 18 days in presence of 40 mg/kg TMZ by H and E staining based assay; type: organism-based; conditions: in vivo, 432 h, dose 1.5-3 mg/kg, time 18 day
[15] = Half-life in Sprague-Dawley rat at 25 mg/kg, po measured upto 24 hrs by LC-MS/MS method; type: ADME, organism-based; conditions: in vivo
U-87 MG [16] = experiment: Antitumor activity against human U-87 MG cells xenografted in BALB/c nude mouse assessed as tumor growth retardation at 3 mg/kg, po administered every other day for 18 days; type: functional, organism-based; conditions: U-87MG ATCC, time 18.0 day
U-87 MG [17] = experiment: Antitumor activity against human U-87 MG cells xenografted in BALB/c nude mouse assessed as increase in p53 expression at 1.5 to 3 mg/kg, po measured after 4 hrs in presence of 40 mg/kg TMZ by Western blotting analysis; type: functional, organism-based; conditions: U-87MG ATCC, dose 1.5-3 mg/kg
[18] = Apparent clearance in Sprague-Dawley rat at 25 mg/kg, po measured upto 24 hrs by LC-MS/MS method; type: ADME, organism-based; conditions: in vivo, read-out: CL(app) (converted)
[19] = Apparent volume of distribution in Sprague-Dawley rat at 5 mg/kg, iv measured upto 24 hrs by LC-MS/MS method; type: ADME, organism-based; conditions: in vivo, read-out: Vz
U-87 MG [20] = experiment: Cytotoxicity against human U-87 MG cells incubated for 48 hrs by CCK8 assay; type: functional, cell-based, U-87MG ATCC
U-87MG ATCC [21] = experiment: Upregulation of p53 expression in human U-87 MG cells at 6.25 to 100 uM after 24 hrs by Western blotting analysis; type: functional, cell-based; conditions: dose 6.25-100 µM
U-87 MG [22] = experiment: Antitumor activity against human U-87 MG cells xenografted in BALB/c nude mouse assessed as tumor growth inhibition at 1.5 mg/kg, po administered every other day for 18 days in presence of 40 mg/kg TMZ; type: functional, U-87MG ATCC; conditions: 432 h, time 18 day, read-out: TGI
[23] = Inhibition of PP2A in human U-87 MG cell lysate using RRA(pT)VA as substrate; type: subcellular
[24] = Apparent volume of distribution in Sprague-Dawley rat at 25 mg/kg, po measured upto 24 hrs by LC-MS/MS method; type: ADME, organism-based; conditions: in vivo
[25] = Tmax in Sprague-Dawley rat at 5 mg/kg, iv measured upto 24 hrs by LC-MS/MS method; type: ADME, organism-based; conditions: in vivo
[26] = Toxicity in BALB/c nude mouse xenografted with U-87 MG cells assessed as spleen damage at 1.5 to 3 mg/kg, po administered every other day for 18 days in presence of 40 mg/kg TMZ by H and E staining based assay; type: organism-based; conditions: in vivo, 432 h, dose 1.5-3 mg/kg, time 18 day
Homo sapiens [27] = organism: Homo sapiens; experiment: Selectivity ratio of IC50 for PP2A (unknown origin ) to IC50 for PP5 (unknown origin)
U-87 MG [28] = experiment: Antitumor activity against human U-87 MG cells xenografted in BALB/c nude mouse assessed as tumor growth inhibition at 3 mg/kg, po administered every other day for 18 days in presence of 40 mg/kg TMZ; type: functional, U-87MG ATCC; conditions: 432 h, time 18 day, read-out: TGI
[29] = MRT(0 to infinity) in Sprague-Dawley rat at 5 mg/kg, iv measured upto 24 hrs by LC-MS/MS method; type: ADME, organism-based; conditions: in vivo
U-87MG ATCC [30] = experiment: Downregulation of MGMT expression in human U-87 MG cells at 25 uM incubated for 24 hrs by Western blotting analysis; type: functional, cell-based
[31] = Oral bioavailability in Sprague-Dawley rat at 25 mg/kg measured upto 24 hrs by LC-MS/MS method; type: ADME, organism-based; conditions: in vivo
[32] = Toxicity in BALB/c nude mouse xenografted with U-87 MG cells assessed as heart damage at 1.5 to 3 mg/kg, po administered every other day for 18 days in presence of 40 mg/kg TMZ by H and E staining based assay; type: organism-based; conditions: in vivo, 432 h, dose 1.5-3 mg/kg, time 18 day
[33] = Stability in mouse plasma assessed as half life measured upto 300 mins by LC-MS/MS analysis; type: ADME, cell-free
[34] = Toxicity in BALB/c nude mouse xenografted with U-87 MG cells assessed as kidney damage at 1.5 to 3 mg/kg, po administered every other day for 18 days in presence of 40 mg/kg TMZ by H and E staining based assay; type: organism-based; conditions: in vivo, 432 h, dose 1.5-3 mg/kg, time 18 day
[35] = Stability of compound in stimulated intestinal fluid assessed as remaining compound after 24 hrs by HPLC method; type: ADME; conditions: simulated intestinal fluid, read-out: Stability
[36] = Cytotoxicity against human BEAS-2B incubated for 48 hrs by CCK8 assay; type: toxicity, cell-based; conditions: BEAS-2B cells
[37] = Apparent clearance in Sprague-Dawley rat at 5 mg/kg, iv measured upto 24 hrs by LC-MS/MS method; type: ADME, organism-based; conditions: in vivo, read-out: CL(app) (converted)
HCT-116 = experiment: Cytotoxicity against human HCT-116 cells incubated for 48 hrs by CCK8 assay; type: functional, cell-based; conditions: HCT-116, 48 h

O=C(O)[C@@H]1[C@H](C(=O)n2ccc3ccccc32)[C@H]2CC[C@@H]1O2
MRT inf [1]: 5 h
Activity (U-87MG ATCC [2]): Active
Activity (U-87 MG [3]): 19.2%
Activity [4]: Non-Toxic
Activity [5]: Non-Toxic
solubility [6]: 552 µg/mL (≈ 1930 µM)
Activity (U-87 MG [7]): Active
Activity (U-87MG ATCC [8]): Active
Activity (U-87MG ATCC [9]): Active
Activity (U-87 MG [10]): Active
Ratio IC50 (Homo sapiens [11]): 21.4
remaining at 24 h [12]: 98.3%
AUC(0-inf) [13]: 13300 ng·h/mL
IC50 (A549): 69.6 µM
Activity [14]: Non-Toxic
half-life [15]: 3.94 h
Activity (U-87 MG [16]): Active
Activity (U-87 MG [17]): Active
CL/F [18]: 7.69 mL/min/kg
Vd [19]: 1.32 L/kg
IC50 (U-87 MG [20]): 70.1 µM
Activity (U-87MG ATCC [21]): Active
inhibition in vivo at 1.5 mg/kg (U-87 MG [22]): 70.9%
IC50 [23]: 33.8 µM
Vz [24]: 2.62804 L/kg
Tmax [25]: 1.2 min
Activity [26]: Non-Toxic
Ratio IC50 (Homo sapiens [27]): 38
inhibition in vivo at 3 mg/kg (U-87 MG [28]): 87.7%
MRT inf [29]: 5.52 h
Activity (U-87MG ATCC [30]): Active
bioavailability [31]: 82%
Activity [32]: Non-Toxic
half-life [33]: 2.09 h
Activity [34]: Non-Toxic
remaining at 24 h [35]: 96%
IC50 at 48 h [36]: 57.8 µM
clearance [37]: 6.3 mL/min/kg
IC50 (HCT-116): 26.5 µM
